In ChEMBL document CHEMBL3351954, “Enhanced water-soluble derivative of PC407 as a novel potential COX-2 inhibitor injectable formulation” (Bioorg Med Chem Lett, 2014):
≈ marks a conversion by molar mass, not a printed value. Calls of active or inactive are those of the source. The calls are words filed in the database; no cut-off is given here.

Tests used:
Mus musculus [1] = test: Analgesic activity in Kun Ming mouse model assessed as inhibition of acetic acid-induced visceral pain at 0.1 mmol/kg, iv administered 5 mins prior to acetic acid challenge measured after 30 mins by writhing assay relative to control; format: functional; set-up: scale not given: the % may be the effect or the level left
[2] = Solubility of the compound in water at 25 degC by HPLC analysis; format: physicochemical
Plasma [3] = test: Drug level in Sprague-Dawley rat plasma treated with 5 mg/kg, iv after 10 mins to 4 hrs; format: ADME, organism-based; set-up: dose 5 mg/kg, route intravenous; details: in vivo
Mus musculus [4] = test: Analgesic activity in Kun Ming mouse model assessed as inhibition of acetic acid-induced visceral pain at 0.1 mmol/kg, iv administered 5 mins prior to acetic acid challenge measured after 15 mins by writhing assay relative to control; format: functional; set-up: scale not given: the % may be the effect or the level left
[5] = biological target: Prostaglandin G/H synthase 1 (Homo sapiens) (UniProt P23219); test: Inhibition of recombinant COX-1 (unknown origin) at 0.1 uM
[6] = biological target: T1, Prostaglandin G/H synthase 2 (Homo sapiens) (UniProt P35354); test: Inhibition of recombinant COX-2 (unknown origin) at 0.1 uM
T1 sequence (whole entry): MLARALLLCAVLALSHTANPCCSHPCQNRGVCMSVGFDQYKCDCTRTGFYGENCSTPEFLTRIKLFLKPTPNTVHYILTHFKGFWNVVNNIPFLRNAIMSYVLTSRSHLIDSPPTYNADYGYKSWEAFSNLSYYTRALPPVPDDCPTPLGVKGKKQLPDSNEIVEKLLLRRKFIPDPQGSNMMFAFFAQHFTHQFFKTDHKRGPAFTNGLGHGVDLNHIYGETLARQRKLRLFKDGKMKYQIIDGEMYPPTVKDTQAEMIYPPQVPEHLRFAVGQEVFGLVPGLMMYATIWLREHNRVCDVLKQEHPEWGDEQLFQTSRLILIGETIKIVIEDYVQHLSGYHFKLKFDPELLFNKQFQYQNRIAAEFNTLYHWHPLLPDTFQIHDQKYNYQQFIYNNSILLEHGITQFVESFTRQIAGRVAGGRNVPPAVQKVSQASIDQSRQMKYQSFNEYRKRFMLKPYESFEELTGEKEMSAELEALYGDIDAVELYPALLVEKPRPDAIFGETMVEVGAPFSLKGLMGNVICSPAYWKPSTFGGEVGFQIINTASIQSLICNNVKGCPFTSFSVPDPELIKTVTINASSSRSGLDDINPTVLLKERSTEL

[7] = Toxicity in iv dosed Kun Ming mouse; format: organism-based; details: in vivo
[8] = biological target: T1, Prostaglandin G/H synthase 2 (Homo sapiens); test: Inhibition of recombinant COX-2 (unknown origin) at 10 uM
Plasma [9] = test: Prodrug conversion in Sprague-Dawley rat plasma assessed as PC407 formation at 5 mg/kg, iv after 1.5 hrs; format: ADME, organism-based; set-up: dose 5 mg/kg, route intravenous; details: in vivo
[10] = biological target: Prostaglandin G/H synthase 1 (Homo sapiens) (UniProt P23219); test: Inhibition of recombinant COX-1 (unknown origin) at 10 uM

Prostaglandin G/H synthase 1 (Homo sapiens), sequence (P23219 whole entry): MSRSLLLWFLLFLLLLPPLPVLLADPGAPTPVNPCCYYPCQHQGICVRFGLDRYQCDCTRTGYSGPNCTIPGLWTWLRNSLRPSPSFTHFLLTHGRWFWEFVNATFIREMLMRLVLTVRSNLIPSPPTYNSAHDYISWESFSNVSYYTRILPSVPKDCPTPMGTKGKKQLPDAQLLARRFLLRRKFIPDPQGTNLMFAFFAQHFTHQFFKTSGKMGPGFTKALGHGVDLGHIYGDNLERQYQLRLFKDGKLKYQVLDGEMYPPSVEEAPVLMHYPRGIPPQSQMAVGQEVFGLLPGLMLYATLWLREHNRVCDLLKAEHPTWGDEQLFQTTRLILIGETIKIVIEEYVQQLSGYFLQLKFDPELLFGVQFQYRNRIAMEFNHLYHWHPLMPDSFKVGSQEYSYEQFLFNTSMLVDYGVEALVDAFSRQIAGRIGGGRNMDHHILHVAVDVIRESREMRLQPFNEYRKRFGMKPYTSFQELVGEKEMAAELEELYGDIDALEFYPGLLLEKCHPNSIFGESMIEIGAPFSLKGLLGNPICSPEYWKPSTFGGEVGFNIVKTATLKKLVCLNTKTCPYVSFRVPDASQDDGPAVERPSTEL

Drug uptake (Plasma [3])	inhibition [5]	inhibition [6] [%]	SMILES	Activity (Mus musculus [1]) [%]	solubility [2] [mg/mL]	Activity (Mus musculus [4]) [%]	MTD [7] [mg/kg]	inhibition [8]	Drug metabolism (Plasma [9])	inhibition [10]
Active	inactive	100	NS(=O)(=O)c1ccc(-n2nc(C(F)(F)F)cc2-c2ccc3ccccc3c2)cc1	81	0.0016 (≈ 3.83 µM)	83				
			O=C([O-])CCC(=O)[N-]S(=O)(=O)c1ccc(-n2nc(C(F)(F)F)cc2-c2ccc3ccccc3c2)cc1.[Na+].[Na+]	83	20.3	77	> 1500	inactive	metabolite_detected	inactive
